Reference: the NIST ThermoML archive (doi:10.1016/j.fluid.2015.07.030)

Experiment: xn = mol fraction of the nth substance listed
Conditions: 95.99 kPa, Liquid, Vibrating tube method

OCCOCCOCCO [triethylene glycol] + O
mass density [kg/m3]
Conditions | 293.15 K | 298.15 K | 303.15 K | 308.15 K | 313.15 K
x2 = 0 | 1123.12 | 1119.01 | 1114.79 | 1110.81 | 1106.7
x2 = 0.1056 | 1122.61 | 1118.31 | 1114.09 | 1109.99 | 1105.84
x2 = 0.2069 | 1121.88 | 1117.53 | 1113.37 | 1109.16 | 1105.25
x2 = 0.3103 | 1120.77 | 1116.52 | 1112.38 | 1108.31 | 1104.34
x2 = 0.4843 | 1118.69 | 1114.57 | 1110.18 | 1106.08 | 1101.98
x2 = 0.5016 | 1118.43 | 1114.12 | 1109.85 | 1105.68 | 1101.69
x2 = 0.5952 | 1116.29 | 1111.83 | 1107.57 | 1103.19 | 1099.18
x2 = 0.6015 | 1116.07 | 1111.61 | 1107.35 | 1102.97 | 1098.96
x2 = 0.6787 | 1112.29 | 1107.99 | 1103.97 | 1099.53 | 1095.62
x2 = 0.7835 | 1102.7 | 1098.52 | 1094.74 | 1090.2 | 1086.93
x2 = 0.8183 | 1096.95 | 1092.99 | 1089.46 | 1084.98 | 1081.89
x2 = 0.8472 | 1090.49 | 1086.81 | 1083.32 | 1078.84 | 1076.08
x2 = 0.8719 | 1083.52 | 1080.07 | 1076.78 | 1072.37 | 1069.93
x2 = 0.8925 | 1076.28 | 1073.04 | 1069.94 | 1065.64 | 1063.47
x2 = 0.9106 | 1068.64 | 1065.62 | 1062.7 | 1058.54 | 1056.6
x2 = 0.9254 | 1061.24 | 1058.41 | 1055.66 | 1051.66 | 1049.89
x2 = 0.9303 | 1058.23 | 1055.05 | 1052.47 | 1049.13 | 1047.41
x2 = 0.939 | 1053.42 | 1050.36 | 1048.08 | 1044.27 | 1042.63
x2 = 0.951 | 1045.41 | 1042.85 | 1040.42 | 1036.82 | 1035.27
x2 = 0.9599 | 1037.69 | 1036.35 | 1034.04 | 1030.61 | 1029.11
x2 = 0.9707 | 1029.87 | 1027.7 | 1025.28 | 1022.68 | 1019.99
x2 = 0.979 | 1021.78 | 1019.75 | 1017.72 | 1014.8 | 1013.28
x2 = 0.9866 | 1013.57 | 1011.61 | 1009.56 | 1007.37 | 1005.16
x2 = 0.9936 | 1005.7 | 1003.82 | 1001.99 | 999.97 | 997.49
